In PubChem BioAssay AID1259407 (Chemical Carcinogenesis Research Information System (CCRIS), 2018) one finds mutagenic call data, which are given here for eight compounds.

Active and inactive are the calls of the source. The rule behind the calls is not given here.

This data set relates to CCRIS mutagenicity, Ames/micronucleus/aberration tests. As to the kind of experiment: CCRIS mutagenicity studies. Particulars: Test System: AMES SALMONELLA TYPHIMURIUM
[1] abbreviates: Strain/Indicator: TA98, Metabolic Activation: HAMSTER, LIVER, S-9, AROCLOR 1254 (10%), Method: PREINCUBATION
[2] abbreviates: Strain/Indicator: TA98, Metabolic Activation: NONE, Method: PREINCUBATION
Setting [3] is: Strain/Indicator: TA98, Metabolic Activation: RAT, LIVER, S-9, AROCLOR 1254 (10%), Method: PREINCUBATION
Setting [4] is: Strain/Indicator: TA100, Metabolic Activation: HAMSTER, LIVER, S-9, AROCLOR 1254 (10%), Method: PREINCUBATION
Where [5] appears, read: Strain/Indicator: TA100, Metabolic Activation: NONE, Method: PREINCUBATION
The mark [6] stands for this setting: Strain/Indicator: TA100, Metabolic Activation: RAT, LIVER, S-9, AROCLOR 1254 (10%), Method: PREINCUBATION
Where [7] appears, read: Strain/Indicator: TA1535, Metabolic Activation: HAMSTER, LIVER, S-9, AROCLOR 1254 (10%), Method: PREINCUBATION
Setting [8] is: Strain/Indicator: TA1535, Metabolic Activation: NONE, Method: PREINCUBATION
[9] abbreviates: Strain/Indicator: TA1535, Metabolic Activation: RAT, LIVER, S-9, AROCLOR 1254 (10%), Method: PREINCUBATION
[10] abbreviates: Strain/Indicator: TA1537, Metabolic Activation: HAMSTER, LIVER, S-9, AROCLOR 1254 (10%), Method: PREINCUBATION
The mark [11] stands for this setting: Strain/Indicator: TA1537, Metabolic Activation: NONE, Method: PREINCUBATION
Setting [12] is: Strain/Indicator: TA1537, Metabolic Activation: RAT, LIVER, S-9, AROCLOR 1254 (10%), Method: PREINCUBATION
[13] abbreviates: Strain/Indicator: TA98, Metabolic Activation: NONE, Method: STANDARD PLATE.
Where [14] appears, read: Strain/Indicator: TA100, Metabolic Activation: NONE, Method: STANDARD PLATE.

Consider `CCN`, for which the mutagenic call runs as follows: under setting [1], “inactive; negative”; under setting [2], “inactive; negative”; under setting [3], “inactive; negative”; under setting [4], “inactive; negative”; under setting [5], “inactive; negative”; under setting [6], “inactive; negative”. In addition, the mutagenic call reads like this: under setting [7], “inactive; negative”; under setting [8], “inactive; negative”; under setting [9], “inactive; negative”; under setting [10], “inactive; negative”; under setting [11], “inactive; negative”; under setting [12], “inactive; negative”.

For `Fc1c(F)c(F)c2ncccc2c1F`, the mutagenic call (Strain/Indicator: TA100, Metabolic Activation: RAT LIVER S-9, PHENOBARBITAL AND 5,6-BENZOFLAVONE, Method: PREINCUBATION) was “active; positive”.

With `Cn1c2ccccc2c(=O)c2c(O)cc3c(c21)CC(C1(C)CO1)O3` (stereo not drawn), the mutagenic call by setting is: under setting [13], “active; positive”; (Strain/Indicator: TA98, Metabolic Activation: RAT, LIVER, S-9, 3-METHYLCHOLANTHRENE, Method: STANDARD PLATE) “active; positive”; (Strain/Indicator: TA98, Metabolic Activation: RAT, LIVER, S-9, PHENOBARBITAL, Method: STANDARD PLATE) “active; positive”; (Strain/Indicator: TA98, Metabolic Activation: RAT, LIVER, S-9, Method: STANDARD PLATE) “active; positive”; under setting [14], “active; positive”; (Strain/Indicator: TA100, Metabolic Activation: RAT, LIVER, S-9, 3-METHYLCHOLANTHRENE, Method: STANDARD PLATE) “active; positive”. The mutagenic call was “active; positive” (Strain/Indicator: TA100, Metabolic Activation: RAT, LIVER, S-9, PHENOBARBITAL, Method: STANDARD PLATE) and “active; positive” (Strain/Indicator: TA100, Metabolic Activation: RAT, LIVER, S-9, Method: STANDARD PLATE).

Take `Cc1cc(-c2ccc(N/N=C3\C(=O)c4c(O)cc(S(=O)(=O)O)cc4C=C3S(=O)(=O)O)c(C)c2)ccc1N/N=C1\C(=O)c2c(O)cc(S(=O)(=O)O)cc2C=C1S(=O)(=O)O`: the mutagenic call is “inactive; negative” under setting [1]; “inactive; negative” under setting [2]; “inactive; negative” under setting [3]; “inactive; negative” under setting [4]; “inactive; negative” under setting [5]; “inactive; negative” under setting [6]. Moreover, the mutagenic call is, setting by setting: under setting [7], “inactive; negative”; under setting [8], “inactive; negative”; under setting [9], “inactive; negative”; under setting [10], “inactive; negative”; under setting [11], “inactive; negative”; under setting [12], “inactive; negative”. Further, the mutagenic call (Strain/Indicator: TA1538, Metabolic Activation: RAT, LIVER, S-9, AROCLOR 1254, Method: STANDARD PLATE) is “inactive; negative”.

`COC(=O)C(Cl)CCC(Cl)CCCCCC(Cl)CCC(Cl)CCCCCl` (stereo not drawn): the mutagenic call is “inactive; negative” (Strain/Indicator: TA97, Metabolic Activation: HAMSTER, LIVER, S-9, AROCLOR 1254 (10 OR 30%), Method: PREINCUBATION); “inactive; negative” (Strain/Indicator: TA97, Metabolic Activation: NONE, Method: PREINCUBATION); “inactive; negative” (Strain/Indicator: TA97, Metabolic Activation: RAT, LIVER, S-9, AROCLOR 1254 (10 OR 30%), Method: PREINCUBATION); “inactive; negative” (Strain/Indicator: TA98, Metabolic Activation: HAMSTER, LIVER, S-9, AROCLOR 1254 (10 OR 30%), Method: PREINCUBATION); “inactive; negative” under setting [2]; “inactive; negative” (Strain/Indicator: TA98, Metabolic Activation: RAT, LIVER, S-9, AROCLOR 1254 (10 OR 30%), Method: PREINCUBATION). The mutagenic call (Strain/Indicator: TA100, Metabolic Activation: HAMSTER, LIVER, S-9, AROCLOR 1254 (10 OR 30%), Method: PREINCUBATION) was “inactive; negative”; the mutagenic call under setting [5] was “inactive; negative”; the mutagenic call (Strain/Indicator: TA100, Metabolic Activation: RAT, LIVER, S-9, AROCLOR 1254 (10 OR 30%), Method: PREINCUBATION) is “inactive; negative”; the mutagenic call (Strain/Indicator: TA1535, Metabolic Activation: HAMSTER, LIVER, S-9, AROCLOR 1254 (10 OR 30%), Method: PREINCUBATION) was “inactive; negative”; the mutagenic call under setting [8] was “inactive; negative”; the mutagenic call (Strain/Indicator: TA1535, Metabolic Activation: RAT, LIVER, S-9, AROCLOR 1254 (10 OR 30%), Method: PREINCUBATION) is “inactive; negative”.

Consider `O=C(O)[C@H]1OC(Oc2ccc3cc4ccc5cccc6ccc(c3c2)c4c56)[C@H](O)[C@@H](O)[C@@H]1O` (stereo partly drawn), for which the mutagenic call is “inactive; negative” under setting [2] and “inactive; negative” (Strain/Indicator: TA98, Metabolic Activation: RAT, LUNG, S-9, Method: PREINCUBATION).

`O=[N+]([O-])c1ccc2nc3cc([N+](=O)[O-])ccc3nc2c1`: the mutagenic call is, setting by setting: (Strain/Indicator: TA98(NR), Metabolic Activation: NONE, Method: PREINCUBATION) “active; positive”; under setting [2], “active; positive”.

As to `C1=CC23CCCC2(C=C1)O3` (stereo not drawn), the mutagenic call was “inactive; negative” under setting [13]; “active; positive” under setting [14]; “active; positive” (Strain/Indicator: TM677/8-AZAGUANINE, Metabolic Activation: NONE, Method: STANDARD PLATE).
